Laboratory results taken from PubChem BioAssay (NCI).
Several values for one entry are separate records, joined by “and”; a condition that tells them apart may be missing. Identical values can stand only once.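 In this assay, cells in 96-well plates receive the compound at five concentrations for 48 hours. Endpoints are linearly interpolated between the surrounding concentrations. GI50 = concentration required for 50% inhibition of growth. TGI marks complete inhibition of growth.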

Columns and labels:
Test in all cases: DTP human tumour cell line panel, 48 h
SF-295 CNS = test system: SF-295 CNS
SNB-75 CNS = test system: SNB-75 CNS
BT-549 breast = test system: BT-549 breast
786-0 renal = test system: 786-0 renal
EKVX NSCLC = test system: EKVX NSCLC
K-562 leukemia = test system: K-562 leukemia
SK-MEL-2 melanoma = test system: SK-MEL-2 melanoma
ACHN renal = test system: ACHN renal
NCI-H226 lung = test system: NCI-H226 lung
HCC-2998 colon = test system: HCC-2998 colon

SMILES | GI50 (SF-295 CNS) | TGI (SF-295 CNS) | GI50 (SNB-75 CNS) | TGI (SNB-75 CNS) | GI50 (BT-549 breast) | TGI (BT-549 breast) | GI50 (786-0 renal) | TGI (786-0 renal) | GI50 (EKVX NSCLC) | TGI (EKVX NSCLC) | GI50 (K-562 leukemia) | TGI (K-562 leukemia) [µM] | GI50 (SK-MEL-2 melanoma) | TGI (SK-MEL-2 melanoma) | GI50 (ACHN renal) | TGI (ACHN renal) [µM] | GI50 (NCI-H226 lung) | TGI (NCI-H226 lung) | GI50 (HCC-2998 colon) | TGI (HCC-2998 colon)
C=C1CC2(OC1=O)C(=O)N(CCCN1C(=O)C3(CC(=C)C(=O)O3)c3ccccc31)c1ccccc12 (stereo not given) | 13.2 µM | 26 µM | 3.44 µM | 26.8 µM | 2.69 µM | 9.65 µM | 1.68 µM | 3.9 µM | 13.6 µM | 26.7 µM | 0.385 µM | 2.07 | 10.4 µM | 32.3 µM | 1.15 µM | 2.36 | 2.01 µM | 6.64 µM | 2.14 µM | 4.53 µM
CCCCCCCCCCCC[n+]1ccccc1 (tested in a mixture with another compound) | 0.712 µM | 2.52 µM | 1.08 µM | 3.84 µM | 0.268 µM | 1.06 µM | 1.95 µM | 5.92 µM | 0.428 µM | 5.13 µM | 0.392 µM | 11 | 1.76 µM | 5.52 µM | 2.25 µM | 14.1 | 1.72 µM | 10.4 µM | 0.646 µM | 2.12 µM
C=CCSc1nc2ccccc2c(=O)n1Cc1ccco1 |  | > 100 µM |  | > 100 µM |  | > 100 µM |  | > 100 µM |  | > 100 µM |  | > 100 |  | > 100 µM |  | > 100 |  | > 100 µM |  | > 100 µM
CCCCCCCCCCN=C(c1ccc(N(C)C)cc1)c1ccc(N(C)C)cc1 | 0.63 µM | 13.7 µM | 0.4 µM | 6.69 µM | 0.857 µM | 52.9 µM | 3.61 µM | 36.8 µM | 1.04 µM | > 100 µM | 0.207 µM | > 100 | 0.492 µM | 33.2 µM | 2.47 µM | > 73.9 | 10.8 µM | > 81.3 µM | 5.07 µM | > 88.6 µM
Cc1cc(Nc2nc(SCc3ccc(C(=O)Nc4ccc(F)cc4N)cc3)nn3cccc23)n[nH]1 | 0.354 µM | 25.9 µM | 0.198 µM | 35.4 µM | 0.296 µM | 7 µM | 0.466 µM | 22 µM | 0.919 µM | 55.9 µM | 0.0487 µM | > 100 | 0.617 µM | 6.01 µM | 1.24 µM | 13 | 2.7 µM | 20.5 µM | 0.677 µM | 11.5 µM
CC1CCCc2c1nn(C(=O)/C=C(\N)c1ccccc1)c2N (stereo not given) | 30.6 µM | > 100 µM | 25.6 µM | > 100 µM | 24.3 µM | 93.7 µM | 16.2 µM | > 100 µM | 16.5 µM | 44.1 µM | 4.99 µM | > 100 | 34.8 µM | > 100 µM | 9.94 µM | > 100 | 16.5 µM | > 100 µM | 14.6 µM | 85.5 µM
CCC(=C(c1ccc(OCCCN(C)C)cc1)c1ccc(OCCCN(C)C)cc1)c1ccc(Cl)cc1 | 2.35 µM | 4.61 µM | 1.56 µM | 3.89 µM | 2.54 µM | 4.94 µM | 0.35 µM | 0.759 µM | 2.43 µM | 4.9 µM | 0.324 µM | 0.78 | 2.63 µM | 5.37 µM | 0.469 µM | 1.36 | 2.65 µM | 5.57 µM | 0.51 µM | 1.54 µM
CN(C)Cc1c[nH]c2c(NCCN)c3c(c(NCCN)c12)C(=O)c1ccccc1C3=O | 2.49 µM | 8.45 µM | 6.13 µM | 17 µM | 3.52 µM | 9.87 µM | 0.71 µM | 7.8 µM | 2.9 µM | 9.36 µM | 0.516 µM | > 100 | 2.41 µM | 8.27 µM | 2.12 µM | 9.04 | 1.56 µM | 5.35 µM | 2.45 µM | 8.37 µM
CNC(=O)c1cc2c(Oc3ccc(NC(=O)C4(C(=O)Nc5ccc(F)cc5)CC4)cc3)ccnc2cc1OC | 0.177 µM | 6.26 µM | 0.0837 µM | 2.74 µM | 3.01 µM | 9.6 µM | 3.46 µM | > 100 µM | 3.39 µM | > 100 µM | 0.37 µM | 3.4 | 2.02 µM | 5.92 µM | 2.31 µM | > 100 | 2.47 µM | 10.7 µM | 5.61 µM | > 100 µM
CCN(CC)CCNC(=O)c1cn2ncnc(Oc3ccc(NC(=O)Nc4ccc(Cl)c(C(F)(F)F)c4)c(F)c3)c2c1C | 1.66 µM | 3.07 µM | 0.412 µM | 1.97 µM | 1.86 µM | 3.48 µM | 1.95 µM | 3.69 µM | 1.92 µM | 3.34 µM | 0.442 µM | 2.28 | 1.61 µM | 3.3 µM | 1.68 µM | 3.04 | 2.05 µM | 4.15 µM | 2.17 µM | 3.77 µM
O=c1c2c3c(sc2n2c(-c4cc(-c5ccccc5)nn4-c4ccccc4)nnc2n1Cc1ccccc1)CCCC3 | > 100 µM | > 100 µM | 12.1 µM | 56.4 µM | > 100 µM | > 100 µM | > 100 µM | > 100 µM | > 100 µM | > 100 µM | > 100 µM | > 100 | > 100 µM | > 100 µM | > 100 µM | > 100 | > 100 µM | > 100 µM | > 100 µM | > 100 µM
Cc1nc(Nc2n[nH]c3c2CN(C(=O)N[C@H](CN(C)C)c2ccccc2)C3(C)C)c2sccc2n1 | 0.078 µM and 0.066 µM | > 10 µM and 8.62 µM | 0.206 µM and 0.284 µM | 2.23 µM and 2.82 µM | 0.393 µM and 0.189 µM | 3.63 µM and 3.12 µM | 0.281 µM and 0.82 µM | 4.75 µM and 4.45 µM | 0.0907 µM and 0.14 µM | > 8.27 µM and 23.6 µM | 0.0242 µM and 0.199 µM | > 100 | 0.0211 µM and 0.0149 µM | 1.01 µM and 2.8 µM | 0.432 µM and 0.337 µM | > 75 | 0.341 µM and 0.302 µM | > 5.18 µM and 5.01 µM | 0.0135 µM and 0.0453 µM | 2.22 µM and 3.98 µM
